Results taken from ChEMBL document CHEMBL4321783, “Recent Progress in Natural-Product-Inspired Programs Aimed To Address Antibiotic Resistance and Tolerance” (J Med Chem, 2019).
Converted amounts (≈) assume the structure as drawn.

Assays:
[1] = Drug accumulation in Escherichia coli MG1655 assessed per 10^12 CFU at 50 uM incubated for 10 mins under shaking condition by LC-MS/MS analysis; format: ADME, K-12 substr. MG1655
Staphylococcus aureus [2] = experiment: Antibacterial activity against Staphylococcus aureus ATCC 29213 by broth microdilution method; format: functional
Staphylococcus aureus [3] = experiment: Antibacterial activity against Staphylococcus aureus NRS3 by broth microdilution method; format: functional
Escherichia coli [4] = experiment: Antibacterial activity against Escherichia coli MG1655 by broth microdilution method; format: functional; conditions: K-12 substr. MG1655
Escherichia coli [5] = experiment: Antibacterial activity against Escherichia coli ELZ4017 by broth microdilution method; format: functional
Escherichia coli [6] = experiment: Antibacterial activity against Escherichia coli ELZ4045 by broth microdilution method; format: functional
Escherichia coli [7] = experiment: Antibacterial activity against Escherichia coli ELZ4346 by broth microdilution method; format: functional
Escherichia coli [8] = experiment: Antibacterial activity against Escherichia coli ELZ4081 by broth microdilution method; format: functional
Escherichia coli [9] = experiment: Antibacterial activity against Escherichia coli ELZ4072 by broth microdilution method; format: functional
Escherichia coli [10] = experiment: Antibacterial activity against Escherichia coli ELZ4239 by broth microdilution method; format: functional
Escherichia coli [11] = experiment: Antibacterial activity against Escherichia coli BAA-2469 by broth microdilution method; format: functional
Klebsiella pneumoniae [12] = experiment: Antibacterial activity against Klebsiella pneumoniae ATCC 27736 by broth microdilution method; format: functional
Klebsiella pneumoniae [13] = experiment: Antibacterial activity against Klebsiella pneumoniae 4-38 by broth microdilution method; format: functional
Klebsiella pneumoniae [14] = experiment: Antibacterial activity against Klebsiella pneumoniae 6-73 by broth microdilution method; format: functional
Enterobacter cloacae [15] = experiment: Antibacterial activity against Enterobacter cloacae ATCC 29893 by broth microdilution method; format: functional
Enterobacter cloacae [16] = experiment: Antibacterial activity against Enterobacter cloacae 1-60 by broth microdilution method; format: functional
Enterobacter cloacae [17] = experiment: Antibacterial activity against Enterobacter cloacae 3-46 by broth microdilution method; format: functional
Acinetobacter baumannii [18] = experiment: Antibacterial activity against Acinetobacter baumannii ATCC 19606 by broth microdilution method; format: functional; conditions: ATCC 19606 = CIP 70.34 = JCM 6841
Acinetobacter baumannii [19] = experiment: Antibacterial activity against Acinetobacter baumannii KB304 by broth microdilution method; format: functional
Acinetobacter baumannii [20] = experiment: Antibacterial activity against Acinetobacter baumannii KB349 by broth microdilution method; format: functional
Acinetobacter baumannii [21] = experiment: Antibacterial activity against Acinetobacter baumannii WO22 by broth microdilution method; format: functional
Acinetobacter baumannii [22] = experiment: Antibacterial activity against Acinetobacter baumannii BD335 by broth microdilution method; format: functional
Acinetobacter baumannii [23] = experiment: Antibacterial activity against Acinetobacter baumannii IF101 by broth microdilution method; format: functional
Pseudomonas aeruginosa [24] = experiment: Antibacterial activity against Pseudomonas aeruginosa PAO1 by broth microdilution method; format: functional
Pseudomonas aeruginosa [25] = experiment: Growth inhibition of Pseudomonas aeruginosa PA14 after 24 hrs; format: functional, organism-based; conditions: PA14, 24 h
Staphylococcus aureus [26] = experiment: Antibacterial activity against methicillin-resistant Staphylococcus aureus 757 after 20 hrs by CLSI-based microdilution method; format: functional; conditions: Staphylococcus aureus, 757, 20 h
Staphylococcus aureus [27] = experiment: Antibacterial activity against methicillin-resistant Staphylococcus aureus 2011 after 20 hrs by CLSI-based microdilution method; format: functional; conditions: Staphylococcus aureus, 2011, 20 h
Enterococcus faecium = experiment: Antibacterial activity against […] Enterococcus faecium 1092 after 20 hrs by CLSI-based microdilution method; format: functional; conditions: Enterococcus faecium, 1092, 20 h
Escherichia coli [28] = experiment: Antibacterial activity against Escherichia coli 2271 after 20 hrs by CLSI-based microdilution method; format: functional; conditions: Escherichia coli, 2271, 20 h
Escherichia coli [29] = experiment: Antibacterial activity against Escherichia coli 121 after 20 hrs by CLSI-based microdilution method; format: functional; conditions: O157:H7 str. 121, 20 h
Streptococcus pneumoniae [30] = experiment: Antibacterial activity against Streptococcus pneumoniae 911 after 20 hrs by CLSI-based microdilution method; format: functional; conditions: Streptococcus pneumoniae, 911, 20 h
Haemophilus influenzae = experiment: Antibacterial activity against Haemophilus influenzae 1244 after 20 hrs by CLSI-based microdilution method; format: functional; conditions: Haemophilus influenzae, 1244, 20 h
Pseudomonas aeruginosa [31] = experiment: Antibacterial activity against Pseudomonas aeruginosa KW799 after 20 hrs under iron-rich medium by broth microdilution method; format: functional; conditions: KW799, 20 h
Pseudomonas aeruginosa [32] = experiment: Antibacterial activity against Pseudomonas aeruginosa PAO1 after 20 hrs under iron-deficient medium by broth microdilution method; format: functional; conditions: PAO1, 20 h
Pseudomonas aeruginosa [33] = experiment: Antibacterial activity against Pseudomonas aeruginosa KW799/61 after 20 hrs under iron-rich medium by broth microdilution method; format: functional; conditions: KW799/61, 20 h
Pseudomonas aeruginosa [34] = experiment: Antibacterial activity against Pseudomonas aeruginosa KW799/61 after 20 hrs under iron-deficient medium by broth microdilution method; format: functional; conditions: KW799/61, 20 h
Pseudomonas aeruginosa [35] = experiment: Antibacterial activity against Pseudomonas aeruginosa PAO1 after 20 hrs under iron-rich medium by broth microdilution method; format: functional; conditions: PAO1, 20 h
Pseudomonas aeruginosa [36] = experiment: Antibacterial activity against Pseudomonas aeruginosa KW799 after 20 hrs under iron-deficient medium by broth microdilution method; format: functional; conditions: KW799, 20 h
Pseudomonas aeruginosa [37] = experiment: Antibacterial activity against Pseudomonas aeruginosa PA4 after 20 hrs under iron-rich medium by broth microdilution method; format: functional; conditions: PA4, 20 h
Pseudomonas aeruginosa [38] = experiment: Antibacterial activity against Pseudomonas aeruginosa PA4 after 20 hrs under iron-deficient medium by broth microdilution method; format: functional; conditions: PA4, 20 h
Staphylococcus aureus [39] = experiment: Antibacterial activity against Staphylococcus aureus BAA-977 expressing iermA by broth microdilution method; format: functional
Staphylococcus aureus [40] = experiment: Antibacterial activity against methicillin-resistant Staphylococcus aureus NRS384 expressing MsrA by broth microdilution method; format: functional
Enterococcus faecalis [41] = experiment: Antibacterial activity against Enterococcus faecalis ATCC 29212 by broth microdilution method; format: functional
Enterococcus faecalis [42] = experiment: Antibacterial activity against Enterococcus faecalis UNT-047 expressing ermB by broth microdilution method; format: functional
Streptococcus pneumoniae [43] = experiment: Antibacterial activity against Streptococcus pneumoniae ATCC 49619 by broth microdilution method; format: functional
Streptococcus pneumoniae [44] = experiment: Antibacterial activity against Streptococcus pneumoniae UNT-042 expressing ermB/mefA by broth microdilution method; format: functional
Pseudomonas aeruginosa [45] = experiment: Antibacterial activity against Pseudomonas aeruginosa ATCC 27853 by broth microdilution method; format: functional

## Cc1cc(=O)n(C)c2c3c4c(cc12)c(C)cc(=O)n4C(CN)CO3 (stereo not given)
[1]
  Drug uptake: 1114 nmol
Staphylococcus aureus [2]
  MIC: 0.03 to 0.5 µg/mL (≈ 0.0922 to 1.54 µM)
Staphylococcus aureus [3]
  MIC: 0.03 to 0.5 µg/mL (≈ 0.0922 to 1.54 µM)
Escherichia coli [4]
  MIC: 0.5 to 16 µg/mL (≈ 1.54 to 49.2 µM)
Escherichia coli [5]
  MIC: 0.5 to 16 µg/mL (≈ 1.54 to 49.2 µM)
Escherichia coli [6]
  MIC: 0.5 to 16 µg/mL (≈ 1.54 to 49.2 µM)
Escherichia coli [7]
  MIC: 0.5 to 16 µg/mL (≈ 1.54 to 49.2 µM)
Escherichia coli [8]
  MIC: 0.5 to 16 µg/mL (≈ 1.54 to 49.2 µM)
Escherichia coli [9]
  MIC: 0.5 to 16 µg/mL (≈ 1.54 to 49.2 µM)
Escherichia coli [10]
  MIC: 0.5 to 16 µg/mL (≈ 1.54 to 49.2 µM)
Escherichia coli [11]
  MIC: 0.5 to 16 µg/mL (≈ 1.54 to 49.2 µM)
Klebsiella pneumoniae [12]
  MIC: 1 to 8 µg/mL (≈ 3.07 to 24.6 µM)
Klebsiella pneumoniae [13]
  MIC: 1 to 8 µg/mL (≈ 3.07 to 24.6 µM)
Klebsiella pneumoniae [14]
  MIC: 1 to 8 µg/mL (≈ 3.07 to 24.6 µM)
Enterobacter cloacae [15]
  MIC: 0.5 to 4 µg/mL (≈ 1.54 to 12.3 µM)
Enterobacter cloacae [16]
  MIC: 0.5 to 4 µg/mL (≈ 1.54 to 12.3 µM)
Enterobacter cloacae [17]
  MIC: 0.5 to 4 µg/mL (≈ 1.54 to 12.3 µM)
Acinetobacter baumannii [18]
  MIC: 2 to 16 µg/mL (≈ 6.15 to 49.2 µM)
Acinetobacter baumannii [19]
  MIC: 2 to 16 µg/mL (≈ 6.15 to 49.2 µM)
Acinetobacter baumannii [20]
  MIC: 2 to 16 µg/mL (≈ 6.15 to 49.2 µM)
Acinetobacter baumannii [21]
  MIC: 2 to 16 µg/mL (≈ 6.15 to 49.2 µM)
Acinetobacter baumannii [22]
  MIC: 2 to 16 µg/mL (≈ 6.15 to 49.2 µM)
Acinetobacter baumannii [23]
  MIC: 2 to 16 µg/mL (≈ 6.15 to 49.2 µM)
Pseudomonas aeruginosa [24]
  MIC: 16 µg/mL (≈ 49.2 µM)

## CCCCCC[C@H](CCCCCCC(N)=O)OC(=O)[C@@H]1CC=CN1C(=O)c1ccccc1O
Pseudomonas aeruginosa [25]
  IC50: 0.035 µM

## CN(C)[C@@H]1C(O)=C(C(N)=O)C(=O)[C@@]2(O)C(O)=C3C(=O)c4c(O)cccc4[C@H](c4ccccc4)[C@H]3C[C@@H]12
Staphylococcus aureus [26]
  MIC: 0.5 µg/mL (≈ 1.02 µM)
Staphylococcus aureus [27]
  MIC: 0.12 µg/mL (≈ 0.245 µM)
Enterococcus faecium
  MIC: 0.5 µg/mL (≈ 1.02 µM)
Escherichia coli [28]
  MIC: > 16 µg/mL
Escherichia coli [29]
  MIC: 8 µg/mL (≈ 16.3 µM)
Streptococcus pneumoniae [30]
  MIC: < 0.06 µg/mL
Haemophilus influenzae
  MIC: 2 µg/mL (≈ 4.08 µM)

## CC(=O)Oc1cccc(C(=O)NCCCC(CCCNC(=O)c2cccc(OC(C)=O)c2OC(C)=O)(CCCNC(=O)c2cccc(OC(C)=O)c2OC(C)=O)N[C@@H](C(=O)N[C@@H]2C(=O)N3[C@@H]2SC(C)(C)[C@@H]3C(=O)O)c2ccc(O)cc2)c1OC(C)=O
Pseudomonas aeruginosa [31]
  MIC: 12.5 to 50 µM (≈ 15.1 to 60.6 µg/mL)
Pseudomonas aeruginosa [32]
  MIC: 0.05 to 0.39 µM (≈ 0.0606 to 0.472 µg/mL)
Pseudomonas aeruginosa [33]
  MIC: 12.5 to 50 µM (≈ 15.1 to 60.6 µg/mL)
Pseudomonas aeruginosa [34]
  MIC: 0.05 to 0.39 µM (≈ 0.0606 to 0.472 µg/mL)
Pseudomonas aeruginosa [35]
  MIC: 12.5 to 50 µM (≈ 15.1 to 60.6 µg/mL)
Pseudomonas aeruginosa [36]
  MIC: 0.05 to 0.39 µM (≈ 0.0606 to 0.472 µg/mL)
Pseudomonas aeruginosa [37]
  MIC: 12.5 to 50 µM (≈ 15.1 to 60.6 µg/mL)
Pseudomonas aeruginosa [38]
  MIC: 0.05 to 0.39 µM (≈ 0.0606 to 0.472 µg/mL)

## CCCCCC[C@@H](CCCCC[C@H](O)C(N)=O)OC(=O)[C@@H]1CC=CN1C(=O)c1ccccc1O
Pseudomonas aeruginosa [25]
  IC50: 8 µM

## CC[C@H]1OC(=O)[C@@](C)(F)C(=O)[C@H](C)[C@@H](O[C@@H]2O[C@H](C)C[C@H](N(C)C)[C@H]2O)[C@](C)(OC)C[C@@H](C)C(=O)[C@H](C)[C@@H]2N(CC#CCn3cc(-c4cccc(N)n4)nn3)C(=O)O[C@@]21C
Staphylococcus aureus [2]
  MIC: 0.06 µg/mL (≈ 0.0713 µM)
Acinetobacter baumannii [18]
  MIC: 2 µg/mL (≈ 2.38 µM)
Staphylococcus aureus [39]
  MIC: 0.06 µg/mL (≈ 0.0713 µM)
Staphylococcus aureus [40]
  MIC: 0.06 µg/mL (≈ 0.0713 µM)
Enterococcus faecalis [41]
  MIC: 0.03 µg/mL (≈ 0.0356 µM)
Enterococcus faecalis [42]
  MIC: 1 µg/mL (≈ 1.19 µM)
Streptococcus pneumoniae [43]
  MIC: ≤ 0.03 µg/mL
Streptococcus pneumoniae [44]
  MIC: ≤ 0.03 µg/mL
Pseudomonas aeruginosa [45]
  MIC: 16 µg/mL (≈ 19 µM)
